Data reported in patent publication US20240269139A1, “COMPOUNDS FOR TARGETED PROTEIN DEGRADATION OF KINASES” (DANA-FARBER CANCER INSTITUTE, INC., priority 2020, published 2024).
Several values for one entry are separate records, joined by “and”; a condition that tells them apart may be missing. Identical values can stand only once. Like-named read-outs stand apart in the source and are kept apart here.

Experiments:
Type in all cases: cell-based
[1] = molecular target: T1, protein kinases (human kinome) (Homo sapiens, UniProt Q14CZ7); conditions: Accession Q14CZ7, direction down
T1 sequence (Q14CZ7 1-662): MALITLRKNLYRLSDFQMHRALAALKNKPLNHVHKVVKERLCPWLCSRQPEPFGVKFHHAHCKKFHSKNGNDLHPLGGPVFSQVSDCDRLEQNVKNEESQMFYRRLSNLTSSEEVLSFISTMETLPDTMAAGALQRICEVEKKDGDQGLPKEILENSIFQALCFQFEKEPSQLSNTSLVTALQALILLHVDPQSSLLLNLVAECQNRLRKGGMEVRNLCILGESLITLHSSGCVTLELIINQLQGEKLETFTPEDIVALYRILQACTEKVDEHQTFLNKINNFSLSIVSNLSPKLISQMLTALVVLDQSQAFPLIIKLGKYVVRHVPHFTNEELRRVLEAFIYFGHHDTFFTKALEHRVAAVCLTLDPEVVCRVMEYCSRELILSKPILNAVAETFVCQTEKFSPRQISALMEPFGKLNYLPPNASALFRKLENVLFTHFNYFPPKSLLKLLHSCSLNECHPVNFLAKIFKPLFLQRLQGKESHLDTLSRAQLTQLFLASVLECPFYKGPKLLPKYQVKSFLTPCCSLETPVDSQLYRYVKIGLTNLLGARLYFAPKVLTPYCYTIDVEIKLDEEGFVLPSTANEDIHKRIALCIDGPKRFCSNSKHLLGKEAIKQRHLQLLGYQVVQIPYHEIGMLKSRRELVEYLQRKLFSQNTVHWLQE

[2] = molecular target: protein kinases (human kinome) (Homo sapiens, UniProt Q8NI60)
[3] = molecular target: T2, protein kinases (human kinome) (Homo sapiens, UniProt Q969Z0); conditions: Accession Q969Z0-1, direction down
T2 sequence (Q969Z0 108-631): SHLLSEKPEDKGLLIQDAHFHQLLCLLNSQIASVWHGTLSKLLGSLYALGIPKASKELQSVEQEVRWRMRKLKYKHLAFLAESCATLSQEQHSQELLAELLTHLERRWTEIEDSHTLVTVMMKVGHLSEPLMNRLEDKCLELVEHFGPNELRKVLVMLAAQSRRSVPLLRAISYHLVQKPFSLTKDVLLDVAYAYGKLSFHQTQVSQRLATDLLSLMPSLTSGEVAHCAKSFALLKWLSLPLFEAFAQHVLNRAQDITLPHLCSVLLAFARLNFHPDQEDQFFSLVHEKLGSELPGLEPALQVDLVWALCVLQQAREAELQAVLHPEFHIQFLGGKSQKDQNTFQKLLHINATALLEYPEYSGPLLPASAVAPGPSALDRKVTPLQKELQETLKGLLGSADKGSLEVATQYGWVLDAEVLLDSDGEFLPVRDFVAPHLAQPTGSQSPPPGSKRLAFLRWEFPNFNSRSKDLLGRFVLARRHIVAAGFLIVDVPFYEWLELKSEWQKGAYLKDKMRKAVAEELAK

[4] = molecular target: protein kinases (human kinome) (Homo sapiens, UniProt P42684); conditions: for logFC: ABL2 (P42684) protein abundance, degrader vs DMSO, down
[5] = molecular target: protein kinases (human kinome) (Homo sapiens, UniProt Q07912); conditions: for logFC TNK2 (Q07912-1): direction down; for logFC TNK2: TNK2 (Q07912-1)
Chain of protein kinases (human kinome) (Homo sapiens, UniProt Q07912) (Q07912 whole entry): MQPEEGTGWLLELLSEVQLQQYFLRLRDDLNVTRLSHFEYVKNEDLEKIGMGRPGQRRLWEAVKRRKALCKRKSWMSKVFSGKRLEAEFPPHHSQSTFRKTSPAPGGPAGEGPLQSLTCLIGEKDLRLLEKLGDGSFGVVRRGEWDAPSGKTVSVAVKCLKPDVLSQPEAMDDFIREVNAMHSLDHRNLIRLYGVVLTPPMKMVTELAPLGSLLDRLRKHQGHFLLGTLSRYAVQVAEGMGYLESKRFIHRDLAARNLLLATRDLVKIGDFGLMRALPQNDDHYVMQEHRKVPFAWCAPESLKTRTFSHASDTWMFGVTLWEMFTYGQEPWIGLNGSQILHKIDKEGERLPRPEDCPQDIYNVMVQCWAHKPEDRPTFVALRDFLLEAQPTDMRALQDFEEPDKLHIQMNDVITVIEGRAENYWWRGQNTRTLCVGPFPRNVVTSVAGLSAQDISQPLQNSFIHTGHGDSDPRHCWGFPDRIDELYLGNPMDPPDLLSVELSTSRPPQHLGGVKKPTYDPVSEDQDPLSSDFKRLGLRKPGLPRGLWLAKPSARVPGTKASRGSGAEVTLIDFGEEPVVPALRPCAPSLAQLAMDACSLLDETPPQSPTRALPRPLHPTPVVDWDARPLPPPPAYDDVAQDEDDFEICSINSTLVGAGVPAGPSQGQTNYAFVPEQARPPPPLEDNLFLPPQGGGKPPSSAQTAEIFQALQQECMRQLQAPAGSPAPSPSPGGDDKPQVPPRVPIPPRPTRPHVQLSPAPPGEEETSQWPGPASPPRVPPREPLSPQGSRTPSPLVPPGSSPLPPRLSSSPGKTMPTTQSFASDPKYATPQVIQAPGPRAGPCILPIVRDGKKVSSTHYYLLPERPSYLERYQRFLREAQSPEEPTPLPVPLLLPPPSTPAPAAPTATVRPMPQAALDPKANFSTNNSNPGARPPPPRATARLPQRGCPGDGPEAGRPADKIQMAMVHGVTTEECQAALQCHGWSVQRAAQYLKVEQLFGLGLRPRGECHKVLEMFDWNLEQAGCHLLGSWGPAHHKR

Chain of protein kinases (human kinome) (Homo sapiens, UniProt Q8NI60) (Q8NI60 163-647): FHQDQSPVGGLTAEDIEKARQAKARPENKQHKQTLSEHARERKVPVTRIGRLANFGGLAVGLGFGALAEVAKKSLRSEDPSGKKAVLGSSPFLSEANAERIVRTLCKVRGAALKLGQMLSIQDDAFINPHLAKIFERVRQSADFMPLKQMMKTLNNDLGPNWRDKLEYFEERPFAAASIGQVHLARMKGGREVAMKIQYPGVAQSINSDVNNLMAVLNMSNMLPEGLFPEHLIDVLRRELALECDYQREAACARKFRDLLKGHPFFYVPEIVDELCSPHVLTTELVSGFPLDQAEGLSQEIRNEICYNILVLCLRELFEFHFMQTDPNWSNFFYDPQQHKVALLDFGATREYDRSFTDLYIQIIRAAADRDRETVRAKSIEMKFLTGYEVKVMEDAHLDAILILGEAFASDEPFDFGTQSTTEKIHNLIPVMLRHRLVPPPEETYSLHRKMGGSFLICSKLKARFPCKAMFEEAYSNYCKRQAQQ
Chain of protein kinases (human kinome) (Homo sapiens, UniProt P42684) (P42684 whole entry): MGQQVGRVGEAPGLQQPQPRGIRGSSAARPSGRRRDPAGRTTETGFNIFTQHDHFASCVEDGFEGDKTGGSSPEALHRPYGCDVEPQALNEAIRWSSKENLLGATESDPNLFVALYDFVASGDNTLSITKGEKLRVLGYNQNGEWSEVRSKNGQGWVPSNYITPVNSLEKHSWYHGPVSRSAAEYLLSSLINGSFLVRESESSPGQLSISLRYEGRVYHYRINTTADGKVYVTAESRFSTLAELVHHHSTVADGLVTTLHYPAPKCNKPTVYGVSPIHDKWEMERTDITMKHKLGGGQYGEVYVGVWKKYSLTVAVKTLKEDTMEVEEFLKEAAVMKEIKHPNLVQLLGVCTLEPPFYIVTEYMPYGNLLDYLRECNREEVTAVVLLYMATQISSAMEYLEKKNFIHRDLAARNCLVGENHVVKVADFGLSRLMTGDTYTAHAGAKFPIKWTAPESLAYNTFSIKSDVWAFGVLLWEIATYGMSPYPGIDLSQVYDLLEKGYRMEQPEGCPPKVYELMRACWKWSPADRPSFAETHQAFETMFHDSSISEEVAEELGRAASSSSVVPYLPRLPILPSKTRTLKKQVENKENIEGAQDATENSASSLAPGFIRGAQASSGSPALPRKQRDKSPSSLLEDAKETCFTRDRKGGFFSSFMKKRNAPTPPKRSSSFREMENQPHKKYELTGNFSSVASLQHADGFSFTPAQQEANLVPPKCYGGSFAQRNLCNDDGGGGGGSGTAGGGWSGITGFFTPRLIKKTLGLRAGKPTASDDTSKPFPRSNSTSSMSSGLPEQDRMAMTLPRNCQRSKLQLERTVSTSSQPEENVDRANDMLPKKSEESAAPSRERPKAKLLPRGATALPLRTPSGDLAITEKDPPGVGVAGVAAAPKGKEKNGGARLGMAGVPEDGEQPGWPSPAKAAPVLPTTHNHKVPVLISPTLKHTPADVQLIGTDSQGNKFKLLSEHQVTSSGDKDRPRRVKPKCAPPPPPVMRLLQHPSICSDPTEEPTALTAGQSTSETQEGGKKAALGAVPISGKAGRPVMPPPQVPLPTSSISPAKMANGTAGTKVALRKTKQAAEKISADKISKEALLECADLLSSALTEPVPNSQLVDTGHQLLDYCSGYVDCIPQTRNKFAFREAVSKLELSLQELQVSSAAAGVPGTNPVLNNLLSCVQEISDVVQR

CN(C)C(=O)c1cc2cnc(Nc3ccc(N4CCN(CCCCNC(=O)COc5cccc6c5C(=O)N(C5CCC(=O)NC5=O)C6=O)CC4)cn3)nc2n1C1CCCC1 (stereo not drawn) [BSJ.04.132]
logFC FASTKD3 ([1]; experiment wp084): −0.5428
logFC COQ8A (Q8N160-1) ([2]; experiment wp084): −0.5939
logFC COQ8A (Q8NI60-1) ([2]; experiment wp084): −0.6939
logFC TBRG4 ([3]; experiment wp084): −0.6395

CC(C)(C)c1nc(-c2cccc(NS(=O)(=O)c3c(F)cccc3F)c2F)c(-c2ccnc(NCCOCCNC(=O)CCOCCOCCNc3cccc4c3C(=O)N(C3CCC(=O)NC3=O)C4=O)n2)s1 (stereo not drawn) [DD.03.106]
logFC FASTKD3 ([1]; experiment wp147, 4 uM): −0.8259
logFC COQ8A (Q8N160-1) ([2]; experiment wp147, 1 uM): −0.3548
logFC COQ8A (Q8NI60-1) ([2]; experiment wp147, 1 uM): −0.3548
logFC COQ8A (Q8N160-1) ([2]; experiment wp147, 4 uM): −0.8159
logFC COQ8A (Q8NI60-1) ([2]; experiment wp147, 4 uM): −0.8159
logFC TBRG4 ([3]; experiment wp147, 4 uM): −0.7514

CC(C)(C)c1nc(-c2cccc(NS(=O)(=O)c3c(F)cccc3F)c2F)c(-c2ccnc(NCCOCCNC(=O)CCOCCOCCNc3cccc4c3CN(C3CCC(=O)NC3=O)C4=O)n2)s1 (stereo not drawn) [DD.03.107]
logFC FASTKD3 ([1]; experiment wp147, 1 uM): −0.6939
logFC FASTKD3 ([1]; experiment wp147, 2 uM): −0.6931
logFC FASTKD3 ([1]; experiment wp147, 4 uM): −1.191
logFC COQ8A (Q8N160-1) ([2]; experiment wp147, 1 uM): −0.6678
logFC COQ8A (Q8NI60-1) ([2]; experiment wp147, 1 uM): −0.6678
logFC COQ8A (Q8N160-1) ([2]; experiment wp147, 2 uM): −0.6288
logFC COQ8A (Q8NI60-1) ([2]; experiment wp147, 2 uM): −0.6288
logFC COQ8A (Q8N160-1) ([2]; experiment wp147, 4 uM): −1.121
logFC COQ8A (Q8NI60-1) ([2]; experiment wp147, 4 uM): −1.121
logFC TBRG4 ([3]; experiment wp147, 1 uM): −0.6245
logFC TBRG4 ([3]; experiment wp147, 2 uM): −0.6284
logFC TBRG4 ([3]; experiment wp147, 4 uM): −1.105

O=C(COc1cccc2c1C(=O)N(C1CCC(=O)NC1=O)C2=O)NCCCCCCCC(=O)NC1(c2ccc(-c3nc4ccn5c(=O)[nH]nc5c4cc3-c3ccccc3)cc2)CCC1 (stereo not drawn) [INY.01.140.1]
logFC FASTKD3 ([1]; experiment wp081): −0.3846
logFC TBRG4 ([3]; experiment wp081): −0.4208

CNC(=O)c1ccccc1Nc1cc(Nc2ccc(N3CCN(CCOCCOCCNC(=O)CNc4cccc5c4C(=O)N(C4CCC(=O)NC4=O)C5=O)CC3)cc2OC)ncc1C(F)(F)F (stereo not drawn) [MFH.5.103.1]
logFC TBRG4 ([3]; experiment wp076): −0.3858

Cn1c(=O)c(-c2c(Cl)cccc2Cl)cc2cnc(Nc3ccc(OCCNC(=O)CCCCCCNC(=O)COc4cccc5c4C(=O)N(C4CCC(=O)NC4=O)C5=O)cc3)nc21 (stereo not drawn) [SB1.G.192.1]
logFC [4]: −2.44
logFC ABL2 (P42684) ([4]; experiment wp071): −2.44
logFC TNK2 (Q07912-1) ([5]; Experiment wp131): −1.488
logFC TNK2 ([5]; experiment wp131): −1.488
logFC TBRG4 ([3]; experiment wp081): −0.3452

CC(C)S(=O)(=O)c1ccccc1Nc1nc(Nc2ccc(N3CCN(CCOCCNC(=O)CNc4cccc5c4C(=O)N(C4CCC(=O)NC4=O)C5=O)CC3)cc2)ncc1Cl (stereo not drawn) [SK.3.91]
logFC ([4]; 1 uM): −1.077
logFC ([4]; 2 hr): −0.3453
logFC ([4]; 4 hr): −0.8519 and −0.7658
logFC ABL2 (P42684) ([4]; Experiment wp107): −1.032
logFC ABL2 (P42684) ([4]; experiment wp016): −0.4963
logFC ABL2 (P42684) ([4]; experiment wp016, 1 uM): −1.077
logFC ABL2 (P42684) ([4]; experiment wp133, 2 hr): −0.3453
logFC ABL2 (P42684) ([4]; experiment wp133, 4 hr): −0.8519
logFC ABL2 (P42684) ([4]; experiment wp160, 4 hr): −0.7658
logFC FASTKD3 ([1]; experiment wp160, 1 hr): −0.997
logFC COQ8A (Q8N160-1) ([2]; experiment wp160, 1 hr): −0.7959
logFC COQ8A (Q8NI60-1) ([2]; experiment wp160, 1 hr): −0.7959
logFC TNK2 (Q07912-1) ([5]; Experiment wp133, 2 hr): −1.053
logFC TNK2 (Q07912-1) ([5]; Experiment wp133, 4 hr): −2.261
logFC TNK2 ([5]; experiment wp133, 2 hr): −1.053
logFC TNK2 ([5]; experiment wp133, 4 hr): −2.261
logFC TBRG4 ([3]; experiment wp160, 1 hr): −0.9113

CC(C)S(=O)(=O)c1ccccc1Nc1nc(Nc2ccc(N3CCN(CCOCCOCCNC(=O)CNc4cccc5c4C(=O)N(C4CCC(=O)NC4=O)C5=O)CC3)cc2)ncc1Cl (stereo not drawn) [TL12.186]
logFC [4]: −0.803
logFC ABL2 (P42684) ([4]; experiment wp137): −0.803
logFC FASTKD3 ([1]; experiment wp137): −0.6244
logFC COQ8A (Q8N160-1) ([2]; experiment wp137): −0.4564
logFC COQ8A (Q8NI60-1) ([2]; experiment wp137): −0.4564
logFC TNK2 (Q07912-1) ([5]; Experiment wp131): −2.251
logFC TNK2 (Q07912-1) ([5]; Experiment wp137): −1.575
logFC TNK2 ([5]; experiment wp131): −2.251
logFC TNK2 ([5]; experiment wp137): −1.575
logFC TBRG4 ([3]; experiment wp137): −0.3425
